The nature of data set [1]: Fluorescence quantum yield determination. The format is physicochemical. Particulars: in buffer. How it is done:
There is a shift of 6 nm in the absorbance maxima of the fluorophore between IDCC-NDPK and IDCC-NDPK˜P, but only 2 nm in the emission maxima. The fluorescence quantum yields for the two forms of the labelled enzyme were determined using as reference the known value of 0.83 for Coumarin 314 in ethanol.

For data set [2] the following is noted: in ethanol, known value; cited from earlier work.
A further data set deals with human rho protein. As to the kind of experiment: Nucleotide exchange and GTP hydrolysis of rho measured with IDCC-NDPK˜P fluorescence. The format is biochemical. Particulars: 2 μM Rho.GDP, 10 μM GTP, 30° C., pH 7.6. How it is done: The rate of nucleotide exchange from a small G protein, rho (which also has GTPase activity), was determined in solution. The rate of hydrolysis was also obtained indirectly.
Human rho protein was prepared in a form containing tightly-bound GDP. In the presence of excess added GTP, nucleotide exchange occurs such that GDP is released into free solution where it can be measured according to the invention. Once GTP is bound to rho, its hydrolysis is slowly catalysed by the protein at a steady-state rate. This creates more GDP, which is measured once it is released.
Fluorescence emission was recorded for a 200 μl solution containing 20 mM Tris/HCl, pH 7.6, 1 mM MgCl2, 100 mM (NH4)2SO4, 10 μM GTP, and 2 μM IDCC-NDPK˜P. The reaction was started at t=0 by adding 2 μM Rho.GDP. Excitation was at 440 nm with the emission monochromator set to 475 nm. The temperature was 30° C. The data were normalised using the fluorescence change for 1 μM GDP obtained from a titration of IDCC-NDPK˜P with different GTP/GDP ratios. […] The exponential “burst” represents the exchange of GDP bound to rho for GTP. The linear phase represents steady state: exchange of further GTP onto rho is limited by hydrolysis to GDP.

Where two headings read alike, the source gives them in different places.

With `CCOC(=O)c1cc2cc3c4c(c2oc1=O)CCCN4CCC3` [Coumarin 314], the fluorescence quantum yield in data set [1] was 0.52; in data set [2] it was 0.83.
Regarding “Rho.GDP: human rho protein, a small G protein with GTPase activity, prepared with tightly-bound GDP”, in the data set with human rho protein, the “rate constant of exponential phase (exchange of bound GDP for GTP)” value stood at 0.196 min⁻¹ and the “slope of linear phase (steady state GTP hydrolysis)” value is given as 41.2 nM GDP min^−1.

These data come from patent publication US7297506B2, “Assay for nucleotide triphosphate using a modified nucleoside diphosphate kinase comprising a fluorescent label” (Medical Research Council, priority 1999, dated 2007).
